In patent US8530650B2, “2, 5-diamino-substituted pyrido [4, 3-D] pyrimidines as autotaxin inhibitors against cancer” (MERCK PATENT GmbH, priority 2008, dated 2013) one finds IC50 data, which are given here for 28 compounds.

In this test the target is T1, recombinant autotaxin (Homo sapiens, UniProt Q13822).
T1 construct: made in house; host or cells: Hi5 insect cells (baculovirus)
The test is described as follows: Autotaxin assay (Amplex Red, LPC substrate). Type of test: biochemical. The settings on record: 75 μM LPC, Amplex Red fluorescence, ten 1:3 dilutions starting at 30 μM. The method, then:
Autotaxin activity is measured indirectly by means of Amplex Red Reagent. In this course, Amplex Red is measured as fluorogenic indicator for generated H2O2. Autotaxin converts substrate lysophosphatidylcholine (LPC) to phosphocholine and lysophosphatidylic acid (LPA). After the conversion phosphocholine is reacted with alkaline phosphatase to obtain inorganic phosphate and choline. During the next step choline is oxidized with choline oxidase to yield betaine, whereby H2O2 is generated. H2O2 reacts with Amplex Red Reagent in the presence of peroxidase (Horseradish peroxidase) in an 1:1 stochiometry and yields highly fluorescent resorufin. The generated fluorescence is measured in a reaction-dependent kinetic mode in order to enable subtraction of fluorescence signals of possible other fluorescent compounds that are not part of the reaction from total measured fluorescence.
1.5 μl of a standard solution or of the compounds of the invention are dissolved in 20 mM Hepes pH 7.2 with maximally 7.7% DMSO in individual concentrations. The resulting solution is pre-incubated together with 10 μl (16 ng) of highly purified recombinant autotaxin in a black 384-hole microtiter plate for 30 min at 22° C. Thereafter, the reaction is started through the addition of 5 μL-a-lysophosphatidylcholine (LPC), whereby the final concentration of LPC is 75 μM. The mixture is incubated for 90 min. at 37° C. After the incubation Amplex Red Reagent, peroxidase (Horseradish peroxidase) and choline oxidase are added. The fluorescence is immediately measured at a wavelength of 612 nm with an excitation wavelength of 485 nm in a “Tecan Ultra multimode” fluorescence reader. The activity of autotaxin is indirectly calculated via the amount of detected generated H2O2.
For IC50 analysis, ten serial 1:3 dilutions starting at 30 μM for each compound were run in duplicates.
IC50 values were calculated on normalized data. For normalization, control wells were added to each assay plate and the signal of uninhibited control wells was set to 100%, whereas the signal inhibited by 500 μM C14 LPA, (Avanti Polar Lipids, Cat# 857120P) was set to 0%. Curves were fitted and IC50 values calculated by the following model using proprietary analysis software: Y=Bottom+(100−Bottom)/(1+10^((LogIC50−X)*HillSlope))
Where X is the logarithm of concentration. Y is the response; Y starts at Bottom and goes to Top with a sigmoid shape.
Protein: Recombinant autotaxin (baculoviral Hi5 expression)
Substrate: L-a-lysophosphatidyl choline (chicken egg); Avanti Polar Lipids #830071 P
Standard: C14 LPA, Avanti Polar Lipids, Cat# 857120P
Detection Reagent Amplex Red Reagent; Invitrogen #A12222; dissolved in 1.923 ml of DMSO peroxidase Type VI-A (horseradish), Sigma #P6782; dissolved in 7.45 ml of test buffer, Choline Oxidase; Sigma #C5896; dissolved in 2.47 ml test buffer
Detection Reagent Mix: 1:100 dilution of Amplex Red Regent in test buffer
Test buffer: 200 mM Tris-HCl, Merck, Cat # 1.08219, pH 7.9; 0.1% BSA, lipid free, Roche Cat#775835

pIC50: −log10 of the molar value.

As to `O=C(NCc1cccnc1)C1CCCN(c2nccc3nc(NCc4ccccc4Cl)ncc23)C1` (stereo not shown) [Compound 81, 1-[2-(2-Chloro-benzylamino)-pyrido[4,3-d]pyrimidin-5-yl]-piperidine-3-carboxylic acid (pyridin-3-ylmethyl)-amide], the pIC50 (as a rule, the IC50 on a negative log10 scale, so that one unit is a factor of ten) is more than 5.30.
For `O=C(C1CCCN(c2nccc3nc(NCc4ccccc4Cl)ncc23)C1)N1CCN(c2ccccn2)CC1` (stereo not shown) [Compound 99, {1-[2-(2-Chloro-benzylamino)-pyrido[4,3-d]pyrimidin-5-yl]-piperidin-3-yl}-(4-pyridin-2-yl-piperazin-1-yl)-methanone] the value was more than 5.30; for `CC(C)NC(=O)C1CCN(c2nccc3nc(NCc4ccccc4Cl)ncc23)CC1` [Compound 67, 1-[2-(2-Chloro-benzylamino)-pyrido[4,3-d]pyrimidin-5-yl]-piperidine-4-carboxylic acid isopropylamide], more than 5.30.
For `O=C(Nc1cccnc1)C1CCCN(c2nccc3nc(NCc4ccccc4Cl)ncc23)C1` (stereo not shown) [Compound 82, 1-[2-(2-Chloro-benzylamino)-pyrido[4,3-d]pyrimidin-5-yl]-piperidine-3-carboxylic acid pyridin-3-ylamide] the value was more than 5.30.
For `Clc1ccccc1CNc1ncc2c(NCCc3cccnc3)nccc2n1` [Compound 147, N2-(2-Chloro-benzyl)-N5-(2-pyridin-3-yl-ethyl)-pyrido[4,3-d]pyrimidine-2,5-diamine] the value was more than 4.52; for `CCN(CC)CCCNC(=O)C1CCN(c2nccc3nc(NCc4ccccc4Cl)ncc23)CC1` [Compound 63, 1-[2-(2-Chloro-benzylamino)-pyrido[4,3-d]pyrimidin-5-yl]-piperidine-4-carboxylic acid (3-diethylamino-propyl)-amide], more than 5.00; for `COc1ccc(Nc2nccc3nc(NCc4ccc(Cl)cc4)ncc23)cc1OC` [Compound 47, N2-(4-Chloro-benzyl)-N5-(3,4-dimethoxy-phenyl)-pyrido[4,3-d]pyrimidine-2,5-diamine], more than 4.52.
Turning to `Cc1ccccc1Nc1nccc2nc(NCc3ccc(Cl)cc3)ncc12` [Compound 43, N2-(4-Chloro-benzyl)-N5-o-tolyl-pyrido[4,3-d]pyrimidine-2,5-diamine], the pIC50 was more than 4.52.
For `COc1ccccc1CNc1ncc2c(Nc3ccccc3C)nccc2n1` [Compound 34, N2-(2-Methoxy-benzyl)-N5-o-tolyl-pyrido[4,3-d]pyrimidine-2,5-diamine] the value was more than 4.52; for `COc1ccc(CNc2ncc3c(Nc4ccc(F)cc4C)nccc3n2)cc1` [Compound 59, N5-(4-Fluoro-2-methyl-phenyl)-N2-(4-methoxy-benzyl)-pyrido[4,3-d]pyrimidine-2,5-diamine], more than 5.00; for `CC(C)OCCCNc1nccc2nc(NCc3ccccc3Cl)ncc12` [Compound 15, N2-(2-Chloro-benzyl)-N5-(3-isopropoxy-propyl)-pyrido[4,3-d]pyrimidine-2,5-diamine], more than 4.52.
Consider `COc1ccc(Nc2nccc3nc(NCc4ccc(Cl)cc4)ncc23)cc1` [Compound 44, N2-(4-Chloro-benzyl)-N5-(4-methoxy-phenyl)-pyrido[4,3-d]pyrimidine-2,5-diamine], for which the negative logarithm of the IC50 (pIC50) was more than 4.52.
Consider `Cc1cc(F)ccc1Nc1nccc2nc(NCc3ccccc3)ncc12` [Compound 7, N2-Benzyl-N5-(4-fluoro-2-methyl-phenyl)-pyrido[4,3-d]pyrimidine-2,5-diamine], for which the pIC50 was more than 4.52.
The value for `COc1ccccc1CNc1ncc2c(N3CCCC3)nccc2n1` [Compound 31, (2-Methoxy-benzyl)-(5-pyrrolidin-1-yl-pyrido[4,3-d]pyrimidin-2-yl)-amine] was more than 4.52.
In the case of `Fc1ccc(Nc2nccc3nc(NCc4ccc(Cl)cc4)ncc23)c(F)c1` [Compound 45, N2-(4-Chloro-benzyl)-N5-(2,4-difluoro-phenyl)-pyrido[4,3-d]pyrimidine-2,5-diamine], the pIC50 was more than 4.52.
The value for `Fc1ccc(Nc2nccc3nc(NCc4ccc(Cl)cc4)ncc23)cc1F` [Compound 48, N2-(4-Chloro-benzyl)-N5-(3,4-difluoro-phenyl)-pyrido[4,3-d]pyrimidine-2,5-diamine] was more than 4.52.
With `CC(=O)c1ccc(Nc2nccc3nc(NCc4ccccc4Cl)ncc23)cc1` [Compound 13, 1-{4-[2-(2-Chloro-benzylamino)-pyrido[4,3-d]pyrimidin-5-ylamino]-phenyl}-ethanone], the pIC50 was more than 4.52.
For `CN(C)CCNC(=O)C1CCN(c2nccc3nc(NCc4ccccc4Cl)ncc23)CC1` [Compound 64, 1-[2-(2-Chloro-benzylamino)-pyrido[4,3-d]pyrimidin-5-yl]-piperidine-4-carboxylic acid (2-dimethylamino-ethyl)-amide] the value was more than 5.00; for `CC(C)NC(=O)C1CCN(c2nccc3nc(NCc4ccccc4)ncc23)CC1` [Compound 61, 1-(2-Benzylamino-pyrido[4,3-d]pyrimidin-5-yl)-piperidine-4-carboxylic acid isopropylamide], more than 4.52; for `O=C(Cc1ccncc1)N1CCN(c2nccc3nc(NCc4ccccc4Cl)ncc23)CC1` [Compound 138, 1-{4-[2-(2-Chloro-benzylamino)-pyrido[4,3-d]pyrimidin-5-yl]-piperazin-1-yl}-2-pyridin-4-yl-ethanone], more than 4.52.
The value for `CCN(CC)C(=O)C1CCN(c2nccc3nc(NCc4ccccc4OC)ncc23)CC1` [Compound 103, 1-[2-(2-Methoxy-benzylamino)-pyrido[4,3-d]pyrimidin-5-yl]-piperidine-4-carboxylic acid diethylamide] was more than 5.00.
For the compound `O=C(CN1CCN(c2nccc3nc(NCc4ccccc4Cl)ncc23)CC1)Nc1cccnc1` [Compound 108, 2-{4-[2-(2-Chloro-benzylamino)-pyrido[4,3-d]pyrimidin-5-yl]-piperazin-1-yl}-N-pyridin-3-yl-acetamide], the pIC50 is more than 5.00.
For `COc1ccc(Nc2nccc3nc(NCc4ccccc4OC)ncc23)c(OC)c1` [Compound 40, N5-(2,4-Dimethoxy-phenyl)-N2-(2-methoxy-benzyl)-pyrido[4,3-d]pyrimidine-2,5-diamine] the value was more than 4.52.
Regarding `O=C(NCc1ccco1)C1CCN(c2nccc3nc(NCc4ccccc4)ncc23)CC1` [Compound 60, 1-(2-Benzylamino-pyrido[4,3-d]pyrimidin-5-yl)-piperidine-4-carboxylic acid (furan-2-ylmethyl)-amide], the pIC50 is more than 4.52.
The value for `COc1ccc(CNc2ncc3c(Nc4ccc(C#N)cc4)nccc3n2)cc1` [Compound 57, 4-[2-(4-Methoxy-benzylamino)-pyrido[4,3-d]pyrimidin-5-ylamino]-benzonitrile] was more than 4.52; that for `Clc1ccc(CNc2ncc3c(Nc4ccc5c(c4)OCO5)nccc3n2)cc1` [Compound 46, N5-Benzo[1,3]dioxol-5-yl-N2-(4-chloro-benzyl)-pyrido[4,3-d]pyrimidine-2,5-diamine] was more than 4.52.
With `c1ccc(CNc2ncc3c(Nc4ccc5c(c4)OCO5)nccc3n2)cc1` [Compound 5, N5-Benzo[1,3]dioxol-5-yl-N2-benzyl-pyrido[4,3-d]pyrimidine-2,5-diamine], the pIC50 was more than 4.52.
On to `O=C(c1ccco1)N1CCN(c2nccc3nc(NCc4ccccc4Cl)ncc23)CC1` [Compound 113, {4-[2-(2-Chloro-benzylamino)-pyrido[4,3-d]pyrimidin-5-yl]-piperazin-1-yl}-furan-2-yl-methanone], for which the pIC50 was more than 5.30.
